Results: patent US20090306392A1, “GSM INTERMEDIATES” (priority 2007, published 2009)

System: γ-secretase
Test: Screening for γ-secretase-modulating activity in SKNBE2 cells carrying APP 695-wild type
Assay type: cell-based
Conditions: SKNBE2 cells carrying the APP 695-wild type; for EC50: read-out: EC 50 WTAPP

Compound	EC50	other results
4-Methyl-2-[4′-trifluoromethyl-5-(4-trifluoromethyl-phenylamino)-biphenyl-3-yl]-pentanoic Acid [Example 10]	280 nM	–
CCC(c1ccc(C(F)(F)F)cc1)N1CCCC(c2cc(-c3ccc(C(F)(F)F)cc3)cc([C@@H](CC(C)C)C(=O)O)c2)C1 (single isomer, unassigned) [Example 26, (R*)4-Methyl-2-(4′-trifluoromethyl-5-{1-[1-(4-trifluoromethyl-phenyl)-propyl]-piperidin-3-yl}-biphenyl-3-yl)-pentanoic Acid]	360 nM	–
CCC(c1ccc(C(F)(F)F)cc1)N1CCCC(c2cc(-c3ccc(C(F)(F)F)cc3)cc([C@H](CC(C)C)C(=O)O)c2)C1 (single isomer, unassigned) [Example 35, (S*)4-Methyl-2-(4′-trifluoromethyl-5-{1-[1-(4-trifluoromethyl-phenyl)-propyl]-piperidin-3-yl}-biphenyl-3-yl)-pentanoic Acid]	590 nM	–
CC(C)CCC(c1ccc(C(F)(F)F)cc1)N1CCCC(c2cc(-c3ccc(C(F)(F)F)cc3)cc([C@@H](CC(C)C)C(=O)O)c2)C1 (single isomer, unassigned) [Example 37, (R*)4-Methyl-2-(5-{1-[4-methyl-1-(4-trifluoromethyl-phenyl)-pentyl]-piperidin-3-yl}-4′-trifluoromethyl-biphenyl-3-yl)-pentanoic Acid]	–	% @ 0.3 uM (WTAPP) (0.3 uM): 44% @ 0.3 uM
CC(C)C[C@@H](C(=O)O)c1cc(OCc2cc(F)cc(F)c2)cc(-c2ccc(C(F)(F)F)cc2)c1 [Example 1, (R)2-[5-(3,5-Difluoro-benzyloxy)-4′-trifluoromethyl-biphenyl-3-yl]-4-methyl-pentanoic Acid]	530 nM	–
CC(C)C[C@H](C(=O)O)c1cc(OCc2cc(F)cc(F)c2)cc(-c2ccc(C(F)(F)F)cc2)c1 [Example 2, (S)-2-[5-(3,5-Difluoro-benzyloxy)-4′-trifluoromethyl-biphenyl-3-yl]-4-methyl-pentanoic Acid]	1520 nM	–
CC(C)C[C@@H](C(=O)O)c1cc(OCc2ccc(F)cc2C(F)(F)F)cc(-c2ccc(C(F)(F)F)cc2)c1 [Example 3, (R)-2-[5-(4-fluoro-2-trifluoromethyl-benzyloxy)-4′-trifluoromethyl-biphenyl-3-yl]-4-methyl-pentanoic Acid]	570 nM	–
CC(C)CC(C(=O)O)c1cc(OCc2cc(F)cc(F)c2)cc(-c2ccc(Cl)c(C(F)(F)F)c2)c1 (stereo not shown) [Example 4, 2-[4′-Chloro-5-(3,5-difluoro-2-benzyloxy)-3′-trifluoromethyl-biphenyl-3-yl]-4-methyl-pentanoic Acid]	310 nM	–
CC(C)CC(C(=O)O)c1cc(-c2ccc(C(F)(F)F)cc2)cc(-c2cc(F)cc(F)c2)c1 (stereo not shown) [Example 5, 2-(3,5-Difluoro-4″-trifluoromethyl-[1,1′;3′,1″]terphenyl-5′-yl)-4-methyl-pentanoic Acid]	190 nM	–
CC(C)CC(C(=O)O)c1cc(-c2ccc(C(F)(F)F)cc2)cc(-c2ccc(OC(F)(F)F)c(F)c2)c1 (stereo not shown) [Example 6, 2-(3-Fluoro-4-trifluoromethoxy-4″-trifluoromethyl-[1,1′;3′,1″]terphenyl-5′-yl)-4-methyl-pentanoic Acid]	140 nM	–
CC(C)CC(C(=O)O)c1cc(Nc2cc(F)cc(F)c2)cc(-c2ccc(C(F)(F)F)cc2)c1 (stereo not shown) [Example 9, 2-[5-(3,5-Difluoro-phenylamino)-4′-trifluoromethyl-biphenyl-3-yl]-4-methyl-pentanoic Acid]	–	inhibition @ 3 uM (WTAPP) (3 uM): 73% inhibition @ 3 uM
CC(C)CC(C(=O)O)c1cc(Nc2ccc(C(C)C)cc2)cc(-c2ccc(C(F)(F)F)cc2)c1 (stereo not shown) [Example 11, 2-[5-(4-Isopropyl-phenylamino)-4′-trifluoromethyl-biphenyl-3-yl]-4-methyl-pentanoic Acid]	290 nM	–
CC(C)C[C@@H](C(=O)O)c1cc(Nc2cc(C(F)(F)F)ccc2C(F)(F)F)cc(-c2ccc(C(F)(F)F)cc2)c1 [Example 12, (R)2-[5-(2,5-Bis-trifluoromethyl-phenylamino)-4′-trifluoromethyl-biphenyl-3-yl]-4-methyl-pentanoic Acid]	150 nM	–
